According to ChEMBL document CHEMBL4308841, “Synthesis, in vitro antiproliferative activity, and kinase inhibitory effects of pyrazole-containing diarylureas and diarylamides” (Eur J Med Chem, 2018):

Legend:
OVCAR-8 = experiment: Growth inhibition of human OVCAR8 cells assessed as cell growth at 0.01 uM incubated for 48 hrs by sulforhodamine B assay relative to control; type: functional; details: OVCAR-8, 48 h, read-out: Activity
SW-620 = experiment: Growth inhibition of human SW620 cells assessed as cell growth at 0.01 uM incubated for 48 hrs by sulforhodamine B assay relative to control; type: functional; details: SW-620, 48 h, read-out: Activity
MOLT-4 = experiment: Growth inhibition of human MOLT4 cells assessed as cell growth at 100 uM incubated for 48 hrs by sulforhodamine B assay relative to control; type: functional; details: MOLT-4, 48 h, read-out: Activity
RPMI-8226 = experiment: Growth inhibition of human RPMI8226 cells assessed as cell growth at 0.01 uM incubated for 48 hrs by sulforhodamine B assay relative to control; type: functional; details: RPMI-8226, 48 h, read-out: Activity
U-251 = experiment: Growth inhibition of human U251 cells assessed as cell growth at 100 uM incubated for 48 hrs by sulforhodamine B assay relative to control; type: functional; details: U-251, 48 h, read-out: Activity
UACC-62 = experiment: Growth inhibition of human UACC62 cells assessed as cell growth at 0.01 uM incubated for 48 hrs by sulforhodamine B assay relative to control; type: functional; details: UACC-62, 48 h, read-out: Activity
IGROV-1 = experiment: Growth inhibition of human IGROV1 cells assessed as cell growth at 0.01 uM incubated for 48 hrs by sulforhodamine B assay relative to control; type: functional; details: IGROV-1, 48 h, read-out: Activity
K562 = experiment: Growth inhibition of human K562 cells incubated for 48 hrs by sulforhodamine B assay; type: functional, cell-based; details: K562, 48 h
SF-295 = experiment: Growth inhibition of human SF295 cells assessed as cell growth at 0.1 uM incubated for 48 hrs by sulforhodamine B assay relative to control; type: functional; details: SF-295, 48 h, read-out: Activity
T47D [1] = experiment: Growth inhibition of human T47D cells incubated for 48 hrs by sulforhodamine B assay; type: functional, cell-based
HT-29 = experiment: Growth inhibition of human HT-29 cells assessed as cell growth at 0.01 uM incubated for 48 hrs by sulforhodamine B assay relative to control; type: functional; details: HT-29, 48 h, read-out: Activity
SK-MEL-5 = experiment: Growth inhibition of human SK-MEL-5 cells incubated for 48 hrs by sulforhodamine B assay; type: functional, cell-based; details: SK-MEL-5, 48 h
M14 [2] = experiment: Growth inhibition of human M14 cells assessed as cell growth at 0.1 uM incubated for 48 hrs by sulforhodamine B assay relative to control; type: functional; details: M14, 48 h, read-out: Activity
M14 [3] = experiment: Growth inhibition of human M14 cells assessed as cell growth at 0.01 uM incubated for 48 hrs by sulforhodamine B assay relative to control; type: functional; details: M14, 48 h, read-out: Activity
HCT-15 = experiment: Growth inhibition of human HCT15 cells assessed as cell growth at 100 uM incubated for 48 hrs by sulforhodamine B assay relative to control; type: functional; details: HCT-15, 48 h, read-out: Activity
OVCAR-4 [4] = experiment: Growth inhibition of human OVCAR4 cells assessed as cell growth at 1 uM incubated for 48 hrs by sulforhodamine B assay relative to control; type: functional; details: OVCAR-4, 48 h, read-out: Activity
BT-549 = experiment: Growth inhibition of human BT549 cells assessed as cell growth at 0.1 uM incubated for 48 hrs by sulforhodamine B assay relative to control; type: functional; details: BT-549, 48 h, read-out: Activity
A549 = experiment: Growth inhibition of human A549/ATCC cells assessed as cell growth at 0.01 uM incubated for 48 hrs by sulforhodamine B assay relative to control; type: functional; details: A549, 48 h, read-out: Activity
NCI-H23 [5] = experiment: Growth inhibition of human NCI-H23 cells assessed as cell growth at 100 uM incubated for 48 hrs by sulforhodamine B assay relative to control; type: functional; details: NCI-H23, 48 h, read-out: Activity
M14 [6] = experiment: Growth inhibition of human M14 cells assessed as cell growth at 100 uM incubated for 48 hrs by sulforhodamine B assay relative to control; type: functional; details: M14, 48 h, read-out: Activity
SK-MEL-2 = experiment: Growth inhibition of human SK-MEL-2 cells assessed as cell growth at 1 uM incubated for 48 hrs by sulforhodamine B assay relative to control; type: functional; details: SK-MEL-2, 48 h, read-out: Activity
NCI-H460 = experiment: Growth inhibition of human NCI-H460 cells assessed as cell growth at 100 uM incubated for 48 hrs by sulforhodamine B assay relative to control; type: functional; details: NCI-H460, 48 h, read-out: Activity
NCI-H23 [7] = experiment: Growth inhibition of human NCI-H23 cells assessed as cell growth at 0.1 uM incubated for 48 hrs by sulforhodamine B assay relative to control; type: functional; details: NCI-H23, 48 h, read-out: Activity
786-0 = experiment: Growth inhibition of human 786-0 cells assessed as cell growth at 100 uM incubated for 48 hrs by sulforhodamine B assay relative to control; type: functional; details: 786-0, 48 h, read-out: Activity
HOP-62 [8] = experiment: Growth inhibition of human HOP62 cells assessed as cell growth at 0.1 uM incubated for 48 hrs by sulforhodamine B assay relative to control; type: functional; details: HOP-62, 48 h, read-out: Activity
KM12 = experiment: Growth inhibition of human KM12 cells assessed as cell growth at 1 uM incubated for 48 hrs by sulforhodamine B assay relative to control; type: functional; details: KM12, 48 h, read-out: Activity
OVCAR-4 [9] = experiment: Growth inhibition of human OVCAR4 cells incubated for 48 hrs by sulforhodamine B assay; type: functional, cell-based; details: OVCAR-4, 48 h
HOP-62 [10] = experiment: Growth inhibition of human HOP62 cells assessed as cell growth at 1 uM incubated for 48 hrs by sulforhodamine B assay relative to control; type: functional; details: HOP-62, 48 h, read-out: Activity
ACHN = experiment: Growth inhibition of human ACHN cells assessed as cell growth at 0.1 uM incubated for 48 hrs by sulforhodamine B assay relative to control; type: functional; details: read-out: Activity
T47D [11] = experiment: Growth inhibition of human T47D cells assessed as cell growth at 0.01 uM incubated for 48 hrs by sulforhodamine B assay relative to control; type: functional; details: read-out: Activity
PC-3 = experiment: Growth inhibition of human PC3 cells assessed as cell growth at 1 uM incubated for 48 hrs by sulforhodamine B assay relative to control; type: functional; details: PC-3, 48 h, read-out: Activity
[12] = read-out: LC50 (the source's name)
[13] = read-out: pLC50 (the source's name) (converted)

COc1cc(Cl)cc(-c2nn(-c3cccc(NC(=O)Nc4ccc(Cl)c(Cl)c4)c3)cc2-c2ccncc2)c1
growth at 0.01 µM (OVCAR-8): 96%
growth at 0.01 µM (SW-620): 100%
growth at 100 µM (MOLT-4): -7%
growth at 0.01 µM (RPMI-8226): 99%
growth at 100 µM (U-251): -68%
growth at 0.01 µM (UACC-62): 95%
growth at 0.01 µM (IGROV-1): 98%
GI50 (K562; read-out: GI50): 1000 nM
LC50 (K562; read-out: LC50): > 100000 nM
TGI (K562; read-out: TGI): > 100000 nM
GI50 (K562; read-out: pGI50 (converted)): 1950 nM
LC50 (K562; read-out: pLC50 (converted)): > 100000 nM
TGI (K562; read-out: pTGI (converted)): > 100000 nM
growth at 0.1 µM (SF-295): 57%
GI50 (T47D [1]; read-out: GI50): 2780 nM
CC50 (T47D [1]; [12]): > 100000 nM
TGI (T47D [1]; read-out: TGI): 15900 nM
GI50 (T47D [1]; read-out: pGI50 (converted)): 2750 nM
CC50 (T47D [1]; [13]): > 100000 nM
TGI (T47D [1]; read-out: pTGI (converted)): 19100 nM
growth at 0.01 µM (HT-29): 103%
GI50 (SK-MEL-5; read-out: GI50): 1520 nM
CC50 (SK-MEL-5; [12]): 6230 nM
TGI (SK-MEL-5; read-out: TGI): 31700 nM
GI50 (SK-MEL-5; read-out: pGI50 (converted)): 1620 nM
CC50 (SK-MEL-5; [13]): 6170 nM
TGI (SK-MEL-5; read-out: pTGI (converted)): 3160 nM
growth at 0.1 µM (M14 [2]): 100%
growth at 0.01 µM (M14 [3]): 97%
growth at 100 µM (HCT-15): -9%
growth at 1 µM (OVCAR-4 [4]): 83%
growth at 0.1 µM (BT-549): 98%
growth at 0.01 µM (A549): 99%
growth at 100 µM (NCI-H23 [5]): -20%
growth at 100 µM (M14 [6]): -36%
growth at 1 µM (SK-MEL-2): 80%
growth at 100 µM (NCI-H460): -8%
growth at 0.1 µM (NCI-H23 [7]): 93%
growth at 100 µM (786-0): -46%
growth at 0.1 µM (HOP-62 [8]): 94%
growth at 1 µM (KM12): 72%
GI50 (OVCAR-4 [9]; read-out: GI50): 2000 nM
CC50 (OVCAR-4 [9]; [12]): > 100000 nM
TGI (OVCAR-4 [9]; read-out: TGI): 53800 nM
GI50 (OVCAR-4 [9]; read-out: pGI50 (converted)): 2820 nM
CC50 (OVCAR-4 [9]; [13]): > 100000 nM
TGI (OVCAR-4 [9]; read-out: pTGI (converted)): 53700 nM
growth at 1 µM (HOP-62 [10]): 91%
growth at 0.1 µM (ACHN): 96%
growth at 0.01 µM (T47D [11]): 94%
growth at 1 µM (PC-3): 54%

COc1cc(Cl)cc(-c2nn(-c3cccc(NC(=O)Nc4cc(C(F)(F)F)cc(C(F)(F)F)c4)c3)cc2-c2ccncc2)c1
growth at 0.01 µM (OVCAR-8): 99%
growth at 0.01 µM (SW-620): 98%
growth at 100 µM (MOLT-4): -34%
growth at 0.01 µM (RPMI-8226): 93%
growth at 100 µM (U-251): -92%
growth at 0.01 µM (UACC-62): 96%
growth at 0.01 µM (IGROV-1): 103%
IC50 (K562): 350 nM
GI50 (K562; read-out: GI50): 351 nM
LC50 (K562; read-out: LC50): > 100000 nM
TGI (K562; read-out: TGI): 5840 nM
GI50 (K562; read-out: pGI50 (converted)): 355 nM
LC50 (K562; read-out: pLC50 (converted)): > 100000 nM
TGI (K562; read-out: pTGI (converted)): 5890 nM
growth at 0.1 µM (SF-295): 91%
IC50 (T47D [1]): 390 nM
GI50 (T47D [1]; read-out: GI50): 390 nM
CC50 (T47D [1]; [12]): > 100000 nM
TGI (T47D [1]; read-out: TGI): 4160 nM
GI50 (T47D [1]; read-out: pGI50 (converted)): 389 nM
CC50 (T47D [1]; [13]): > 100000 nM
TGI (T47D [1]; read-out: pTGI (converted)): 4170 nM
growth at 0.01 µM (HT-29): 102%
IC50 (SK-MEL-5): 1140 nM
GI50 (SK-MEL-5; read-out: GI50): 1140 nM
CC50 (SK-MEL-5; [12]): 50.4 nM
TGI (SK-MEL-5; read-out: TGI): 2390 nM
GI50 (SK-MEL-5; read-out: pGI50 (converted)): 1150 nM
CC50 (SK-MEL-5; [13]): 5010 nM
TGI (SK-MEL-5; read-out: pTGI (converted)): 2400 nM
growth at 0.1 µM (M14 [2]): 93%
growth at 0.01 µM (M14 [3]): 96%
growth at 100 µM (HCT-15): -83%
growth at 1 µM (OVCAR-4 [4]): 30%
growth at 0.1 µM (BT-549): 89%
growth at 0.01 µM (A549): 100%
growth at 100 µM (NCI-H23 [5]): -58%
growth at 100 µM (M14 [6]): -82%
growth at 1 µM (SK-MEL-2): 40%
growth at 100 µM (NCI-H460): -84%
growth at 0.1 µM (NCI-H23 [7]): 95%
growth at 100 µM (786-0): -70%
growth at 0.1 µM (HOP-62 [8]): 93%
growth at 1 µM (KM12): 31%
IC50 (OVCAR-4 [9]): 500 nM
GI50 (OVCAR-4 [9]; read-out: GI50): 501 nM
CC50 (OVCAR-4 [9]; [12]): > 100000 nM
TGI (OVCAR-4 [9]; read-out: TGI): 21400 nM
GI50 (OVCAR-4 [9]; read-out: pGI50 (converted)): 501 nM
CC50 (OVCAR-4 [9]; [13]): > 100000 nM
TGI (OVCAR-4 [9]; read-out: pTGI (converted)): 26900 nM
growth at 1 µM (HOP-62 [10]): 40%
growth at 0.1 µM (ACHN): 99%
growth at 0.01 µM (T47D [11]): 96%
growth at 1 µM (PC-3): 5%
